This is an account of results in patent EP1709964A2, “A method of cosmetic depigmentation care by applying at least one aurone” (ENGELHARD LYON, priority 2005, dated 2006).

Like-named read-outs stand apart in the source and are kept apart here.

One data set relates to tyrosinase from mushroom. As to the kind of experiment: In vitro test of the inhibition of isolated tyrosinase (L-DOPA to dopachrome, OD 490 nm). The format is biochemical. Conditions: 490 nm. The source says:
Tyrosinase catalyses the formation of L-dopaquinone, and then dopachrome, from L-Dopa. Dopachrome is a colored compound which is quantifiable by visible spectrophotometry at 490 nm. The use of an active which is capable of modifying the enzymatic activity manifests itself by a variation in the optical density at 490nm.
The ratio of the rates of formation of the dopachrome enables the activations or the inhibitions obtained with the various molecules tested to de determined precisely.
The sample to be tested is incubated in the presence of tyrosinase from mushroom (Sigma) for 5 minutes under agitation. L-DOPA (Sigma), substrate of the tyrosinase, is incubated for 10 minutes in the dark in the presence or the absence of the molecules to be tested. The calculation of the percentage inhibition is made by comparing the OD of the test to the OD of the negative control without molecule.
Within the context of this in vitro test, the aurone derivatives were tested at final concentrations of 10^-4M and 10^-5M.

Data set [1] has as its target T1, Human tyrosinase (Homo sapiens, UniProt P14679).
T1 construct: Normal human melanocytes (originating from abdominal plasty) are sown in a 24-well plate; endogenous in cells; host or cells: normal human melanocytes from abdominal plasty; donors of light, brown and black phototype
T1 sequence (P14679 19-529): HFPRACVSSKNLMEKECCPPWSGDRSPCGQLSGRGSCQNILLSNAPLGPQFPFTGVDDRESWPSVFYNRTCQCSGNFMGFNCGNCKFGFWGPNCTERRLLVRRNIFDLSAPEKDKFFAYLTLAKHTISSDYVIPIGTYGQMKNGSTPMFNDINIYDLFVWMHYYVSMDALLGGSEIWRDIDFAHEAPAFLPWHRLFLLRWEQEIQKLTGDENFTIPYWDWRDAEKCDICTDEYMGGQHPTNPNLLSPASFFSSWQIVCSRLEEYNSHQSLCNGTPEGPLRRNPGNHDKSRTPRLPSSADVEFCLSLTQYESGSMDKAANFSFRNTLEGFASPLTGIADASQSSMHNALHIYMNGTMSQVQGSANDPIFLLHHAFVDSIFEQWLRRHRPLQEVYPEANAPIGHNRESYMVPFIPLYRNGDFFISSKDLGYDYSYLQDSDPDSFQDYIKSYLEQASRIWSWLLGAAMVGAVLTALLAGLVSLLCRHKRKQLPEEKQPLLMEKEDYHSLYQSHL
Briefly: In vitro test of the inhibition of human tyrosinase from melanocyte extract (L-Dopa/MBTH, OD 490 nm). Type of data set: biochemical. Particulars: isolated human tyrosinase, read-out: Inhibition of human tyrosinase, percentage inhibition. Here is the method:
Human tyrosinase obtained from melanocyte extracts originating from healthy donors catalyses the formation of L-Dopaquinone from L-Dopa. L-dopaquinone can be quantified by visible spectrophotometry at 490 nm by virtue of a chromogen : 3-methyl-2-benzothiazolinone hydrazone (MBTH).
The melanocyte extract is obtained after lysis of the cell membranes of the normal human melanocytes which lysis is carried out by a heat shock. The supernatant is recovered and then incubated with MBTH (Sigma) and L-Dopa (Sigma).

Another data set relates to normal human melanocytes. Briefly: Cytotoxicity by PNPP determination (percentage viability). Type of data set: cell-based. Particulars: 24 hours at 37°C, with respect to non-treated wells. As to the method:
The cytotoxicity of the actives is studied on normal human melanocytes in a 24-well plate by a determination with PNPP (P-nitrophenyl phosphate), a substance which is converted into p-nitrophenol by the intracellular acid phosphatases of viable cells.
The absorbance of p-nitrophenol at 405 nm is directly proportional to the number of viable cells.
The actives are tested at 2 different concentrations (10^-4 M and 10^-5 M) and are added to the culture medium and are incubated at 37°C for 24 hours. The determination with PNPP is carried out on a cell mat and the results are expressed as a percentage viability with respect to the negative control (non-treated wells). The results obtained are summarized in Table 9 below : Tableau 9 : Percentages viability obtained for the various aurone derivatives on normal human melanocytes (the molecules were tested at 2 concentrations 10^-4 and 10^-5 M.

Data set [2] deals with T1, Human tyrosinase. Briefly: Inhibition of human tyrosinase in a monolayer after 24 h application of the actives on normal human melanocytes (MBTH/L-Dopa, OD 490 nm/protein). Type of data set: cell-based. Conditions: for inhibition at 1000 µM: 10^-3 M; for Inhibition (%): model of Example 15. As to the method:
Normal human melanocytes (originating from abdominal plasty) are sown in a 24-well plate at the rate of 80,000 cells per well. They are cultivated up to confluence and the actives are applied for 24 hours in the culture media. After 24 hours, the media are removed and the melanocytes are picked up by mechanical action. An extraction is made by heat shock and the supernatants are then recovered and then incubated with MBTH (Sigma) and L-Dopa (Sigma).
The compound obtained in Example 9b was tested on melanocytes originating from various donors but of light phototypes according to the method described in Example 15. […] Table 6 : Inhibition of tyrosinase by compound 9b on 4 different donors.
The compound obtained in Example 9b is tested on cultures of melanocytes originating from 2 donors of brown phototypes and from one donor of negroid phototype. The method applied is that described in Example 15.
(§1) A study is made with molecules known in the literature for their depigmenting activity. These molecules are applied to the model described in Example 15 so as to compare their efficiency with respect to the aurones described above.

Another data set relates to melanocytes.
Source text: as §1

As to `O=C1/C(=C/c2ccc(O)cc2)Oc2cc(O)cc(O)c21` [Example 9b, (Z)-4,6-Dihydroxy-2-(4'-hydroxybenzylidene)benzofuran-3(2H)-one], the “Inhibition of tyrosinase from mushroom, percentage inhibition” value in the data set on tyrosinase from mushroom (10^-4M) worked out at 23.85 ± 2.42%; with tyrosinase from mushroom (10^-5M), 0 ± 1.73%. Moreover, the inhibition at 100 µM at Human tyrosinase [1] (10^-4M) is 18 ± 1.6%; on Human tyrosinase [2] (10^-4M, 24 hours, read-out: Inhibition of human tyrosinase after application on normal human melanocytes, percentage inhibition) it was 75.3%; on Human tyrosinase [2] (Donor 1 (light phototype), 10^-4 M, read-out: Inhibition of tyrosinase), 37.8%; on Human tyrosinase [2] (Donor 2 (light phototype), 10^-4 M, read-out: Inhibition of tyrosinase), 43%; on Human tyrosinase [2] (Donor 3 (light phototype), 10^-4 M, read-out: Inhibition of tyrosinase) it was 63.4%; on Human tyrosinase [2] (Donor A, brown phototype, 10^-4 M, read-out: Inhibitions of tyrosinase), 45%. The inhibition at 100 µM came to 67% on Human tyrosinase [2] (Donor B, brown phototype, 10^-4 M, read-out: Inhibitions of tyrosinase); 75.3% on Human tyrosinase [2] (Donor S (light phototype), 10^-4 M, read-out: Inhibition of tyrosinase); 65.8% on Human tyrosinase [2] (Donor, 10^-4 M, read-out: Inhibition). For the same molecule, the inhibition at 10 µM on Human tyrosinase [1] (10^-5M) was 5.62 ± 2.73%; at Human tyrosinase [2] (10^-5M, 24 hours, read-out: Inhibition of human tyrosinase after application on normal human melanocytes, percentage inhibition) it was 35.2%; on Human tyrosinase [2] (Donor 1 (light phototype), 10^-5 M, read-out: Inhibition of tyrosinase), -9.77%; at Human tyrosinase [2] (Donor 2 (light phototype), 10^-5 M, read-out: Inhibition of tyrosinase) it was -7.56%; at Human tyrosinase [2] (Donor 3 (light phototype), 10^-5 M, read-out: Inhibition of tyrosinase) it was 24.7%; at Human tyrosinase [2] (Donor A, brown phototype, 10^-5 M, read-out: Inhibitions of tyrosinase) it was 25.4%. Also, the inhibition at 10 µM at Human tyrosinase [2] (Donor B, brown phototype, 10^-5 M, read-out: Inhibitions of tyrosinase) came out at 31.8%; on Human tyrosinase [2] (Donor S (light phototype), 10^-5 M, read-out: Inhibition of tyrosinase), 35.2%; on Human tyrosinase [2] (Donor, 10^-5 M, read-out: Inhibition), 39.5%. The results for the Percentages viability with normal human melanocytes (10^-4 M) and in the data set on normal human melanocytes (10^-5 M) were 90.31% and 128.39%, respectively. For the same molecule, the “Inhibition of human tyrosinase after application on normal human melanocytes, percentage inhibition” value is reported as 75.31 ± 8.51% on Human tyrosinase [2] (10^-4M, 24 hours) and 35.23 ± 2.34% on Human tyrosinase [2] (10^-5M, 24 hours). In addition, the inhibition at 1000 µM was 97.5% on Human tyrosinase [2] (Donor A, brown phototype, read-out: Inhibitions of tyrosinase) and 91.8% at Human tyrosinase [2] (Donor B, brown phototype, read-out: Inhibitions of tyrosinase).
Consider `O=C1O[C@H]([C@@H](O)CO)C(O)=C1OP(=O)(O)O` [VitC PMG, reference compound], for which, in the data set with melanocytes, the cytotoxicity entry is recorded as “no”. The “Inhibition (%)” value on Human tyrosinase [2] (0.03%) was 2.93%; on Human tyrosinase [2] (0.3%), 1.55%; at Human tyrosinase [2] (3%), -3.49%.
